Experimental data taken from patent US8685976B2, “Cell adhesion promoting agent and method of promoting cell adhesion” (Kyoto University, priority 2008, dated 2014).

How the values were obtained:
CHO 745 cells = test: Cell adhesion assay, CHO 745; type: cell-based; conditions: CHO 745, 6 μM, vs parental CHO-K1
Method: (§1) (A) and (B) show CHO-K1 (wild-type) cells incubated with 1% (v/v) DMSO (A) or 6 μM adhesamine (B). (C) and (D) show CHO 677 incubated with 1% (v/v) DMSO (A) or 6 μM adhesamine (B). […] Cells were seeded onto adhesamine-added or fibronectin-coated plastic wells. The concentrations of adhesamine and fibronectin were 6 μM and 5 μg/mL, respectively. Adhered cells were counted at 5 hours after seeding. Each point represents average±SD.
(§2) For CHO wild-type and CHO mutant cell lines, 100 μL of trypsinized cell suspension in a culture medium was added to each well at a density of 2×10^5 cells/mL. After 5-hour incubation at 37° C., non-adhered cells were removed by washing each well with PBS twice, and the attached cells were counted with a Neubauer counting chamber (Digital Bio). To calculate adhesion rates, the cell numbers before washing were assigned a value of 100%. Each assay was conducted in triplicate, and the means and standard derivations were calculated for a minimum of three independent experiments.

Jurkat cells [1] = test: Cell adhesion assay by coating; type: cell-based, human; conditions: 50 μg/well
Method: The surface area per well is 0.3 cm^2.
The assay samples (adhesamine (1), Type I collagen, poly-L-lysine hydrochloride, poly-L-ornithine hydrobromide, and fibronectin) were adjusted in concentration by being diluted with 10 mM PBS containing 1% DMSO. […] Thereafter, the wells were washed with Milli-Q water twice. 100 μL of Jurkat cell suspension (1×10^6 cells/mL) was added to each of coated wells. After 5-hour incubation at 37° C., non-adhered cells were removed by washing each well with PBS twice, and attached cells were counted with a Neubauer counting chamber (Digital Bio).

[2] = system: focal adhesion kinase (FAK); test: Western blotting, FAK activation; type: cell-based, human; conditions: Jurkat
Method: Jurkat cells were treated with adhesamine (6 μM) in a serum-poor culture medium (0.1% FBS) for the indicated periods of time. The treated cell lysates were Western blotted with antibodies against FAK phospho-tyrosine^397 (pFAK), FAK, ERK1/2 phospho-threonine^202/tyrosine^204 (pERK) or ERK. In (B), Jurkat cells were incubated for 5 hours with varied concentrations of adhesamine or poly-L-lysine. The cell lysates were Western blotted with antibodies against FAK phospho-tyrosine^397 or FAK. […] The concentration of adhesamine (1) was 6 μM.
Jurkat cells were maintained in an RPMI medium containing 10% FBS. 5-6 million Jurkat cells were dispensed to a well of a 6-well plate in a final volume of 2 mL, and then incubated at 37° C. for 0-5 hours in the presence of adhesamine or poly-L-lysine. Non-adherent cells were removed and pelleted, and the remaining adherent cells were lysed in a 125 mM Tris-HCl buffer (pH 6.8) containing 4% SDS, 10% glycerol, 0.006% bromophenol blue, and 1.8% β-mercaptoethanol. The adherent cell homogenate was combined with pelleted nonadherent cells from the same well, and the combined sample was boiled for 5 minutes. The samples were separated by SDS-PAGE and electroblotted onto a nitrocellulose membrane. The membranes were blocked in 1% BSA and incubated with primary antibody, and then with horseradish peroxidase-conjugated secondary antibody. The blots were developed using the enhanced chemiluminescence technique.

Jurkat cells [3] = test: Cell detachment assay; type: cell-based, human; conditions: 24 hour after washing (removal of adhesamine)
Method: FIG. 2 is a graph illustrating a reversible activity of adhesamine (1). The attached cells were counted at the indicated time points after removal of adhesamine (1). In order to calculate adhesion rates, the number of cells before washing was assigned a value of 100%. Each assay was conducted in triplicate, and the means and the standard deviations were calculated for a minimum of three independent experiments.
1 μL DMSO solution of adhesamine (1) (6 mM) was dispensed to each well on a 96-well plate. Jurkat cells were suspended in the growth medium, and 100 μL of cell suspension was added to each well at a density of 1×10^6 cells/mL. After 5-hour incubation at 37° C., the medium was aspirated, and the plates were washed twice with PBS. 100 μL of fresh medium was added to each well. After further 4, 8, 14 and 24-hour incubation at 37° C., non-adhered cells were removed by washing with PBS twice, and the attached cells were counted with a Neubauer counting chamber. To calculate adhesion rates, the cell numbers before washing were assigned a value of 100%. Each assay was conducted in triplicate, and the means and standard derivations were calculated for a minimum of three independent experiments.

Jurkat cells [4] = test: Cell adhesion assay by addition, Jurkat cells; type: cell-based, human
Method: 1 μL each of an aqueous solution of adhesamine (1), Type I collagen, poly-L-lysine hydrochloride, poly-L-ornithine hydrobromide, and fibronectin at a concentration of 50, 500, and 5000 μg/ml, was added to 96-well plate. 100 μL of HepG2 suspension (4×10^5 cells/mL) was added to each well. After 3-hour incubation at 37° C., non-adherent cells were removed by washing each well with PBS three times, and the attached cells were counted with a Neubauer counting chamber (Digital Bio). For Jurkat cells, 100 μL of cell suspension was added to each well at a density of 1×10^6 cells/ml. After 5-hour incubation at 37° C., non-adhered cells were removed by washing each well with PBS twice, and the attached cells were counted with a Neubauer counting chamber (Digital Bio). To calculate adhesion rates, firstly seeded cell numbers were assigned a value of 100%. As control tests, the same tests were conducted using wells supplied with only 1 μL of DMSO. Each assay was conducted in triplicate, and the means and standard derivations were calculated.
The comparison between adhesamine and its derivatives regarding cell adhesion promotion activity was conducted using Jurkat cells by way of reagent addition assay. 1 μL each of DMSO solutions of the compounds having concentrations of 60, 600, and 6000 μM were added to 96-well plates. The wells were supplied with 100 μL each of Jurkat cell suspensions (1×10^6 cells/mL). After 5-hour incubation at 37° C., non-adhered cells were removed by washing each well with PBS twice, and the attached cells were counted with a Neubauer counting chamber (Digital Bio). To calculate adhesion rates, firstly seeded cell numbers were assigned a value of 100%. As control tests, the same tests were conducted using well plates supplied with only 1 μL of DMSO. Each assay was conducted in triplicate, and the means and standard derivations were calculated.
However, since HepG2 cells have an intrinsic propensity to adhere to plastic tissue-culture plates, a test was conducted to determine whether the same effect was also obtained in the Jurkat cell line and human T-lymphocytes that are floating cells. Remarkably, 30% and 60% of the Jurkat cells attached to a culture plate in the presence of 6 and 60 μM of adhesamine, respectively (FIG. 1D). Removal of adhesamine by washing the plate twice with PBS detached the cells. 93% of Jurkat cells were released from the surface of a culture plate 24 hour after washing (FIG. 2). […] Simply adding adhesamine to the medium promoted adhesion of Jurkat cells onto culture plates, but not to each other.

CHO 606 cells = test: Cell adhesion assay, CHO 606; type: cell-based; conditions: CHO 606, 6 μM
Method: as §1, §2

CSc1nc(Cl)c(C=O)c(N2CC[N+]3(CC2)CC[N+]2(CCN(c4nc(SC)nc(Cl)c4C=O)CC2)CC3)n1 [adhesamine]
response of cell adhesion to adhesamine (CHO 745 cells): less responsive
cell attachment when applied as coating, compared with coating reagents (Jurkat cells [1]): greater effect than fibronectin, poly-L-lysine, and poly-L-ornithine
time after stimulation at which FAK phosphorylation was demonstrated ([2]; 6 μM, serum-poor medium): 5 h
concentration sufficient to phosphorylate FAK ([2]; 5 hours): 5 µg/mL
Jurkat cells released from the surface of a culture plate (Jurkat cells [3]): 93%
Jurkat cells attached to a culture plate (Jurkat cells [4]; 6 μM in medium): 30%
Jurkat cells attached to a culture plate (Jurkat cells [4]; 60 μM in medium): 60%
cell attachment on addition to the medium, compared with coating reagents (Jurkat cells [4]; FIG. 12): significantly greater attachment than addition of the other coating reagents
cell-cell adhesion (Jurkat cells [4]; added to the medium): did not induce
response of cell adhesion to adhesamine (CHO 606 cells): less responsive
